The results in this text go back to patent publication US20230098569A1, “METHODS OF CONTROLLING OR PREVENTING INFESTATION OF PLANTS BY THE PHYTOPATHOGENIC MICROORGANISM CORYNESPORA CASSIICOLA” (SYNGENTA CROP PROTECTION AG, priority 2020, published 2023).

The assay relates to Corynespora cassiicola. In words: Corynespora cassiicola liquid culture growth inhibition (PDB, 96-well microtiter plate, photometric at 620 nm). Type of assay: cell-based. Particulars: 24 C, 3-4 days, compared to untreated control. The protocol:
Conidia of the fungus from cryogenic storage were directly mixed into nutrient broth (PDB potato dextrose broth). A DMSO solution of the test compounds was placed into a microtiter plate (96-well format) and the nutrient broth containing the fungal spores was added to it. The test plates were incubated at 24 C and the inhibition of growth (% control of Corynespora cassiicola) was determined photometrically after 3-4 days at 620 nm. The activity of a compound is derived by comparing the inhibition of growth in the treated test solution to the growth in the untreated check. The concentration of the compounds was 6.7, 2.2, 0.74, 0.25, 0.082 and 0.027 ppm.
Usually inhibition stands for the percentage by which the read-out fell short of the control. High values mean a strong effect, low ones a weak effect. On to `Cc1cccc2c1ncn2C1=NC(C)(C)C(F)(F)c2ccccc21` [Compound 1], for which the inhibition at 6.7 ppm was no less than 70%. The figure for `Cc1cccc2c1ncn2C1=NC(C)(C)C(F)(F)c2cc(Cl)ccc21` [Compound 5] is no less than 70%; for `Cc1ccc2c(ncn2C2=NC(C)(C)C(F)(F)c3c(F)cccc32)c1C` [Compound 4] it is no less than 70%. For `Cc1ccc2c(ncn2C2=NC(C)(C)C(F)(F)c3ccccc32)c1C` [Compound 2] the value was no less than 70%. The figure for `Cc1c(F)ccc2c1ncn2C1=NC(C)(C)C(F)(F)c2ccccc21` [Compound 3] is no less than 70%. As to `CC1(C)N=C(n2cnc3c4c(ccc32)CCC4)c2ccccc2C1(F)F` [Compound 6], the inhibition at 6.7 ppm was no less than 70%.
